The values below come from patent US10350203B2, “Multidrug infusion for pain control” (priority 2014, dated 2019).

For data set [1], the system named is pain due to severe spastic right hemiparesis post stroke. As to conditions: for pain relief: human, in vivo, iv.
The conditions of data set [2]: intrathecal, combined with opioids, up to more than 30 mg/day; cited from earlier work.
Data set [3] relates to spinal tissue or meninges. As to conditions: dog, in vivo, 1 mg/kg; cited from earlier work.
In data set [4] the test system is hyperalgesia and allodynia. The note with it: rat, in vivo; cited from earlier work.
Data set [5] concerns pain. As to conditions: in vivo; cited from earlier work.
Data set [6] deals with spinal cord. The note with it: in vivo; cited from earlier work.
The subject of data set [7] is gliosis. As to conditions: rat, in vivo; cited from earlier work.

Each structure is given as a SMILES string.

As to `NCC(CC(=O)O)c1ccc(Cl)cc1` (stereo not shown) [Baclofen], the pain relief entry in data set [1] is reported as “no relief”.
For `CCCCN1CCCCC1C(=O)Nc1c(C)cccc1C` (stereo not shown) [bupivacaine], in data set [2], the “bladder dysfunction or muscle weakness” value is listed as “did not cause bladder dysfunction or muscle weakness”.
For `CNC1(c2ccccc2Cl)CCCCC1=O` (stereo not shown) [ketamine], the pain relief result in data set [1] is recorded as “did not provide any relief”. Further, the tolerability entry in data set [1] (intravenous infusions) is listed as “well tolerated”. Moreover, the “histological alterations of spinal tissue or meninges” value in data set [3] was “no histological alterations”.
As for `C=CCN1CC[C@]23c4c5ccc(O)c4O[C@H]2C(=O)CC[C@@]3(O)[C@H]1C5` [naloxone], the “effect on antihyperalgesia and antiallodynia effects of morphine” value in data set [4] is given as “enhanced”. In data set [5], the “effect on morphine analgesic effect” value is “dramatically enhanced” and the side effects result was “without apparent side effects”. Further, the “signs of spinal cord toxicity” value in data set [6] is on record as “have not demonstrated signs of spinal cord toxicity”.
As for `O=C1CC[C@@]2(O)[C@H]3Cc4ccc(O)c5c4[C@@]2(CCN3CC2CC2)[C@H]1O5` [naltrexone], the gliosis result in data set [7] was “attenuates gliosis”.
